According to patent publication US10329289B2, “6,7-dihydro-5H-pyrrolo[3,4-B]pyridin-5-one allosteric modulators of the M4 muscarinic acetylcholine receptor” (Merck Sharp & Dohme Corp., priority 2015, dated 2019):

Target: T1, human M4 muscarinic acetylcholine receptor (Homo sapiens, UniProt P08173)
T1 construct: expressed in transfected cells; host or cells: CHO-K1
T1 sequence (P08173 1-479): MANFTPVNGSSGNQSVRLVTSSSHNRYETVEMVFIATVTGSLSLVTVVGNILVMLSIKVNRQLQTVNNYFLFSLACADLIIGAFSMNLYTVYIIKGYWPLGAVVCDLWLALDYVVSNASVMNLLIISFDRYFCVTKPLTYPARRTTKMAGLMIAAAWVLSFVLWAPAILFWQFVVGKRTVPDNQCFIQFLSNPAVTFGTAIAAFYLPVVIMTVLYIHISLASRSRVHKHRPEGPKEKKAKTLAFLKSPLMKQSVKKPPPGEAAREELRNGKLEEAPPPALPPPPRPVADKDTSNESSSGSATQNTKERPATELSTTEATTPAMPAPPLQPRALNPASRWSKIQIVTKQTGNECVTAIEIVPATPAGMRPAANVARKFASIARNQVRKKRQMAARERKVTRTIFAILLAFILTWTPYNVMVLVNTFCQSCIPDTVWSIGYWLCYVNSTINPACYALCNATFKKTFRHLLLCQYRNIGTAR
Test: human FLIPR-based M4 PAM assay (Ca2+ mobilization, CHO-K1 cells with human M4 receptor and Gαqi5)
Format: cell-based
Conditions: acetylcholine at 20% of maximum response, read-out: M4 PAM IP
Outline: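 Calcium-mobilization (FLIPR) readout in dye-loaded CHO-K1 cells co-expressing human M4 receptor and Gαqi5. Potentiation measured against acetylcholine at a concentration giving 20% of maximal response, with an optional 70% addition; the reported value is the curve inflection point from a 4-parameter logistic fit.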

In order of falling EC50:
1. CCOc1ccc(OC2CCN(c3nc4c(cc3C)C(=O)N(C)[C@H]4CO)CC2)cn1 [Example 285, (R)-2-(4-((6-ethoxypyridin-3-yl)oxy)piperidin-1-yl)-7-(hydroxymethyl)-3,6-dimethyl-6,7-dihydro-5H-pyrrolo[3,4-b]pyridin-5-one]  8.62 µM
2. Cc1cc2c(nc1N1CCC(OCc3ncco3)CC1)CNC2=O [Example 183, 3-methyl-2-(4-(oxazol-2-ylmethoxy)piperidin-1-yl)-6,7-dihydro-5H-pyrrolo[3,4-b]pyridin-5-one]  4.78 µM
3. Cc1cc2c(nc1N1[C@@H]3CC[C@H]1C[C@H](Oc1cccc(C#N)c1)C3)CNC2=O [Example 96, 3-((exo-8-(3-methyl-5-oxo-6,7-dihydro-5H-pyrrolo[3,4-b]pyridin-2-yl)-8-azabicyclo[3.2.1]octan-3-yl)oxy)benzonitrile]  1.43 µM
4. CCc1cc2c(nc1N1CCC(Oc3ccc4c(c3)COCC4)CC1)[C@H](CO)N(C)C2=O [Example 362, (R)-3-ethyl-7-(hydroxymethyl)-2-(4-(isochroman-7-yloxy)piperidin-1-yl)-6-methyl-6,7-dihydro-5H-pyrrolo[3,4-b]pyridin-5-one]  1.29 µM
5. COC1(COC2CCN(c3nc4c(cc3C)C(=O)NC4)CC2)CC1 [Example 193, 2-(4-((1-methoxycyclopropyl)methoxy)piperidin-1-yl)-3-methyl-6,7-dihydro-5H-pyrrolo[3,4-b]pyridin-5-one]  1.22 µM
6. Cc1cc2c(nc1N1CCC(Oc3ccc4c(c3)c(C)nn4C)CC1)CNC2=O [Example 129, 2-(4-((1,3-dimethyl-1H-indazol-5-yl)oxy)piperidin-1-yl)-3-methyl-6,7-dihydro-5H-pyrrolo[3,4-b]pyridin-5-one]  1.09 µM
7. Cc1cc2c(nc1N1CCC(OCC3(C)CC3C#N)CC1)CNC2=O (single isomer, unassigned) [Example 193B]  0.875 µM
8. CCOc1ccc(OC2CCN(c3nc4c(cc3C)C(=O)N[C@H]4CCO)CC2)cn1 [Example 234A, (S)-2-(4-((6-Ethoxypyridin-3-yl)ox)piperidin-1-yl)-7-(2-hydroxyethyl)-3-methyl-6,7-dihydro-5H-pyrrolo[3,4-b]pyridin-5-one]  0.382 µM
9. Cc1c(N2CCC(Oc3ccc4c(c3)COCC4)CC2)nc2c(c1C)C(=O)NC2 [Example 332, 2-(4-(isochroman-7-yloxy)piperidin-1-yl)-3,4-dimethyl-6,7-dihydro-5H-pyrrolo[3,4-b]pyridin-5-one]  0.368 µM
10. CCc1cc2c(nc1N1CC[C@@H](Oc3cccnc3)[C@@H](F)C1)CNC2=O (single isomer, unassigned) [Example 215]  0.304 µM
11. COCCOCc1ccc(OC2CCN(c3nc4c(cc3C)C(=O)NC4)CC2)cc1 [Example 205, 2-(4-(4-((2-methoxyethoxy)methyl)phenoxy)piperidin-1-yl)-3-methyl-6,7-dihydro-5H-pyrrolo[3,4-b]pyridin-5-one]  0.238 µM
12. Cc1cc2c(nc1N1CCC(Oc3cnc4c(c3)COCC4)CC1)CNC2=O [Example 52, 2-(4-((7,8-dihydro-5H-pyrano[4,3-b]pyridin-3-yl)oxy)piperidin-1-yl)-3-methyl-6,7-dihydro-5H-pyrrolo[3,4-b]pyridin-5-one]  0.238 µM
13. CCc1cc2c(nc1N1CCC(Oc3ccc4cnn(C)c4c3)CC1)CN(CCO)C2=O [Example 268A, 3-ethyl-6-(2-hydroxyethyl)-2-(4-((1-methyl-1H-indazol-6-yl)oxy)piperidin-1-yl)-6,7-dihydro-5H-pyrrolo[3,4-b]pyridin-5-one]  0.169 µM
14. COc1ccc(OC2CCN(c3nc4c(cc3C)C(=O)N(C[C@@H](O)C(F)(F)F)C4)CC2)cn1 [Example 318, (R)-2-(4-((6-Methoxypyridin-3-yl)oxy)piperidin-1-yl)-3-methyl-6-(3,3,3-trifluoro-2-hydroxypropyl)-6,7-dihydro-5H-pyrrolo[3,4-b]pyridin-5-one]  0.155 µM
15. CCc1cc2c(nc1N1CCC(Oc3ccc4c(c3)COC4)CC1)CN(CCO)C2=O [Example 258, 2-(4-((1,3-dihydro-2-benzofuran-5-yl)oxy)piperidin-1-yl)-3-ethyl-6-(2-hydroxyethyl)-6,7-dihydro-5H-pyrrolo[3,4-b]pyridin-5-one]  0.126 µM
16. Cc1cc2c(nc1N1CCC(OCC3CCC3)CC1)CNC2=O [Example 172, 2-(4-(cyclobutylmethoxy)piperidin-1-yl)-3-methyl-6,7-dihydro-5H-pyrrolo[3,4-b]pyridin-5-one]  0.125 µM
17. Cc1c(N2CCC(Oc3ccc4c(c3)C[C@@H](O)C4)CC2)nc2c(c1C)C(=O)N(CCO)C2 [Example 264E, (S)-2-(4-((2-hydroxy-2,3-dihydro-1H-inden-5-yl)oxy)piperidin-1-yl)-6-(2-hydroxyethyl)-3,4-dimethyl-6,7-dihydro-5H-pyrrolo[3,4-b]pyridin-5-one]  0.125 µM
18. Cc1ccc(OC2CCN(c3nc4c(cc3C)C(=O)NC4)CC2)cc1Cl [Example 82, 2-(4-(3-chloro-4-methylphenoxy)piperidin-1-yl)-3-methyl-6,7-dihydro-5H-pyrrolo[3,4-b]pyridin-5-one]  0.121 µM
19. CCc1cc2c(nc1N1CCC(Oc3cnc4c(c3)COC4)CC1)CNC2=O [Example 212A, 2-(4-((5,7-dihydrofuro[3,4-b]pyridin-3-yl)oxy)piperidin-1-yl)-3-ethyl-6,7-dihydro-5H-pyrrolo[3,4-b]pyridin-5-one]  0.116 µM
20. Cc1cc2c(nc1N1CCC(Oc3ccc4ncoc4c3)CC1)CNC2=O [Example 89, 2-(4-(benzo[d]oxazol-6-yloxy)piperidin-1-yl)-3-methyl-6,7-dihydro-5H-pyrrolo[3,4-b]pyridin-5-one]  0.083 µM
21. Cc1cc2c(nc1N1CCC(OCC3CC3)CC1)CNC2=O [Example 9, 2-(4-(cyclopropylmethoxy)piperidin-1-yl)-3-methyl-6,7-dihydro-5H-pyrrolo[3,4-b]pyridin-5-one]  0.083 µM
22. Cc1cc2c(nc1N1CCC(Oc3ccc(Cl)cc3)CC1)CNC2=O [Example 76, 2-(4-(4-chlorophenoxy)piperidin-1-yl)-3-methyl-6,7-dihydro-5H-pyrrolo[3,4-b]pyridin-5-one]  0.08 µM
23. Cc1c(N2CCC(OCC3CCC3)CC2)nc2c(c1C)C(=O)N(CCO)C2 [Example 267B, 2-(4-(cyclobutylmethoxy)piperidin-1-yl)-6-(2-hydroxyethyl)-3,4-dimethyl-6,7-dihydro-5H-pyrrolo[3,4-b]pyridin-5-one]  0.08 µM
24. Cc1cc2c(nc1N1CCC(Oc3cccnc3)CC1)CNC2=O [Example 68, 3-methyl-2-(4-(pyridin-3-yloxy)piperidin-1-yl)-6,7-dihydro-5H-pyrrolo[3,4-b]pyridin-5-one]  0.079 µM
25. Cc1c(N2CCC(Oc3ccc4c(c3)C[C@H](O)C4)CC2)nc2c(c1C)C(=O)NC2 [Example 334A, (R)-2-(4-((2-hydroxy-2,3-dihydro-1H-inden-5-yl)oxy)piperidin-1-yl)-3,4-dimethyl-6,7-dihydro-5H-pyrrolo[3,4-b]pyridin-5-one]  0.067 µM
26. Cc1c(N2CCC(Oc3ccc4c(c3)COC4)CC2)nc2c(c1C)C(=O)N([C@H](C)CO)C2 [Example 266C, (R)-2-(4-((1,3-dihydro-2-benzofuran-5-yl)oxy)piperidin-1-yl)-6-(1-hydroxypropan-2-yl)-3,4-dimethyl-6,7-dihydro-5H-pyrrolo[3,4-b]pyridin-5-one]  0.064 µM
27. Cc1c(N2CCC(Oc3ccc4c(c3)COCC4)CC2)nc2c(c1C)C(=O)N(CCO)C2 [Example 268B, 6-(2-hydroxyethyl)-2-(4-(isochroman-7-yloxy)piperidin-1-yl)-3,4-dimethyl-6,7-dihydro-5H-pyrrolo[3,4-b]pyridin-5-one]  0.063 µM
28. COc1ccc(OC2CCN(c3nc4c(cc3C)C(=O)NC4CO)CC2)cn1 (centres unmarked) [Example 270, 7-(Hydroxymethyl)-2-(4-((6-methoxypyridin-3-yl)oxy)piperidin-1-yl)-3-methyl-6,7-dihydro-5H-pyrrolo[3,4-b]pyridin-5-one]  0.048 µM
29. Cc1cc2c(nc1N1CC[C@@H](Oc3ccc4c(cnn4C)c3)[C@@H](F)C1)[C@@H](CO)N(C)C2=O [Example 283, (S)-2-((3S,4R)-3-fluoro-4-((1-methyl-1H-indazol-5-yl)oxy)piperidin-1-yl)-7-(hydroxymethyl)-3,6-dimethyl-6,7-dihydro-5H-pyrrolo[3,4-b]pyridin-5-one]  0.044 µM
30. Cc1cc2c(nc1N1CCC(Oc3ccc4c(c3)CCCN4)CC1)CNC2=O [Example 22, 3-methyl-2-(4-((1,2,3,4-tetrahydroquinolin-6-yl)oxy)piperidin-1-yl)-6,7-dihydro-5H-pyrrolo[3,4-b]pyridin-5-one]  0.032 µM
31. Cc1cc2c(nc1N1CCC(Oc3ccc(F)cc3)CC1)CNC2=O [Example 72, 2-(4-(4-fluorophenoxy)piperidin-1-yl)-3-methyl-6,7-dihydro-5H-pyrrolo[3,4-b]pyridin-5-one]  0.03 µM
32. Cc1cc2c(nc1N1CCC(Oc3ccc4c(c3)COC4)CC1)CN([C@@H](C)CO)C2=O [Example 268D, (S)-2-(4-((1,3-dihydro-2-benzofuran-5-yl)oxy)piperidin-1-yl)-6-(1-hydroxypropan-2-yl)-3-methyl-6,7-dihydro-5H-pyrrolo[3,4-b]pyridin-5-one]  0.028 µM
